Earlier results on one compound are cited in patent publication US11058615B1, “Cosmetic dermal serum with skin rejuvenation properties” (Key Element LLC, priority 2018, dated 2021).

The structures appear in SMILES notation.

One series deals with hyperpigmentation. Particulars: hyperpigmentation caused by exposure to UVA and UVB.
In a further series the test system is skin blemishes. The note with it: recent clinical studies (ncbi.nlm.nih.gov/pubmed/18492184).

Turning to `O=C1O[C@H]([C@@H](O)CO)C([O-])=C1OP(=O)([O-])[O-].[Na+].[Na+].[Na+]` [SAP, Sodium Ascorbyl Phosphate], the “efficacy in helping to normalize skin tone” value in the series with hyperpigmentation is listed as “excellent efficacy”. Further, the “efficacy to fight skin blemishes” value in the series on skin blemishes is given as “significant efficacy”.
